Laboratory results published in patent publication US11053250B2, “Pyrrolo[1,2-b]pyridazine derivatives” (Gilead Sciences, Inc., priority 2018, dated 2021).

Tests used:
TNFα = experiment: IRAK4 Monocyte TNFα Cell Based Assay; details: cryopreserved human monocytes, LPS 50 pg/ml stimulation, TNFα by TR-FRET
Procedure: The cell suspension was then plated at a density of 5,000 cells/well onto black 384 well Greiner clear bottom plates. Plates were pre-spotted with test compounds and serially diluted in DMSO where 40 nL/well were delivered using the Echo 550 acoustic liquid dispenser (Labcyte®) for a final DMSO concentration of 0.1%. Plated cells were treated with compound for 1 hour at 37° C. Cells were then stimulated with 50 pg/ml of LPS (Sigma) excluding outside columns of plate used for unstimulated cell control wells. Cells were incubated for an additional 4 hours at 37° C. Cells were then spun out of the media and 5 μl of sample were taken and analyzed for total TNFα content using the TR-FRET Human TNFα detection system (CisBio). This system utilizes two labeled antibodies (cryptate and XL665) that bind to two different epitopes of the TNFα molecule and produce FRET signal proportional to the concentration of TNFα in the sample. Detection antibodies are mixed 50:50 and 5 μL were dispensed into each well. Plates were covered with clear seals and incubated at room temp overnight. The following morning plates were read using an Envision 2103 Multilabeled reader (PerkinElmer) with excitation/emission/FRET emission at 340 nm/615 nm/665 nm, respectively. Fluorescence intensities at 615 nm and 665 nm emission wavelengths were expressed as a ratio (665 nm/615 nm). Percent of control was calculated as follows: % Control=100×(RatioSample−Ratio0% stimulation)/(Ratio100% Stimulation−Ratio0% stimulation) where unstimulated cells (0% stimulation) were the negative control and stimulated cells (100% stimulation) were used as the positive control.

IRAK4 enzyme = IRAK4 enzyme (Homo sapiens (Human), UniProt Q9NWZ3); experiment: IRAK4 Biochemical Assay (TR-FRET/HTRF); details: 0.75 nM IRAK4, 500 μM ATP, STK1 peptide
Sequence of IRAK4 enzyme (Q9NWZ3 whole entry): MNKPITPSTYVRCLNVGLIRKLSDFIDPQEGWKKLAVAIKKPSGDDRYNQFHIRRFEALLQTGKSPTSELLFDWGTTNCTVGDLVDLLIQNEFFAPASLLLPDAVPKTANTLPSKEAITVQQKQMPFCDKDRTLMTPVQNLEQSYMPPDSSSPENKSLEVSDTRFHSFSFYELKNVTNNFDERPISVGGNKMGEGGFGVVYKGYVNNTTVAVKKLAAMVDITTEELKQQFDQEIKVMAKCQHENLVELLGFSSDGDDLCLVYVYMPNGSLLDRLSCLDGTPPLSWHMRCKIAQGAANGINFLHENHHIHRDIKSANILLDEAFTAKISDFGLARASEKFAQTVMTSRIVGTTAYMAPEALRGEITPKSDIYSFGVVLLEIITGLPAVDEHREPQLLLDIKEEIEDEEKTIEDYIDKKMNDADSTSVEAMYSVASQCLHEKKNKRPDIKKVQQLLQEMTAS
Procedure: IRAK4 enzyme (Carna Biosciences, Chuo-ku, Kobe, Japan) activity was measured by detecting phosphorylated peptide substrate formation using an antibody against the phosphorylated peptide substrate. This is a time-resolved fluorescence resonance energy transfer (TR-FRET) immunoassay, based on the STK1 KinEASE Assay (Cisbio, Bedford, Mass.). The assay was designed as a simple two-step, endpoint assay (a 5 μl enzyme reaction followed by 5 μl stop and detect Solution) performed in ProxiPlate-384 Plus plates (Perkin Elmer, Waltham, Mass.). Staurosporine, a non-selective kinase inhibitor was used as a positive control. Compounds diluted in DMSO were spotted into 384 well plates using a Labcyte® Echo 550 Liquid Handling System prior to addition of IRAK4 enzyme and peptide substrate. Reaction solutions were delivered using a Multi-Flo (Bio-Tek Instruments). The enzyme and peptide solution was incubated with compound for 15 minutes at room temp before the reaction was initiated by the addition of ATP. The standard 5 μl reaction mixture contained 500 μM ATP, 2 μM peptide (STK1 Peptide), 0.75 nM of IRAK4 in reaction buffer (50 mM HEPES, pH 7.0, 0.02% NaN3, 0.01% BSA, 0.1 mM Orthovanadate, 5 mM MgCl2, 0.025% NP-40, 1 mM DTT). After 120 min of incubation at room temperature, 5 μl of Stop and Detect Solution (1:100 Cryptate labeled anti-phosphorylated peptide antibody solution and 125 nM Tracer in a 50 mM HEPES pH 7.0 detection buffer containing sufficient EDTA) was added. The plate was then further incubated for 60 minutes at room temperature and read on Envision 2103 Multilabeled reader (PerkinElmer) with excitation/emission/FRET emission at 340 nm/615 nm/665 nm, respectively. Fluorescence intensities at 615 nm and 665 nm emission wavelengths were expressed as a ratio (665 nm/615 nm). Percentage of inhibition was calculated as below: % Inhibition=100×(RatioSample−Ratio0% Inhibition)/(Ratio100% Inhibition−Ratio0% Inhibition)
The 0% inhibition value comes from control wells lacking inhibitor. The 100% inhibition value comes from control wells containing a saturating amount of known inhibitor staurosporine.

EC50 (TNFα) [nM]	IC50 (IRAK4 enzyme) [nM]	EC50 (TNFα; Monocyte) [nM]	SMILES
18	< 1	–	COC(=O)NC[C@H]1C[C@H](Nc2cc(-c3ccc4cc(C#N)cnn34)ncc2-c2cn(CC(=O)N3CC(F)(F)C3)nn2)C1 [Compound 14, methyl (((1r,3r)-3-((2-(3-cyanopyrrolo[1,2-b]pyridazin-7-yl)-5-(1-(2-(3,3-difluoroazetidin-1-yl)-2-oxoethyl)-1H-1,2,3-triazol-4-yl)pyridin-4-yl)amino)cyclobutyl)methyl)carbamate]
18	3	–	CC(C)(O)[C@H](F)Cn1cc(-c2cnc(-c3ccc4cc(C#N)cnn34)cc2N[C@H]2CC[C@H](c3cnn(C(F)F)c3)CC2)nn1 [Compound 15, 7-(4-(((1r,4R)-4-(1-(difluoromethyl)-1H-pyrazol-4-yl)cyclohexyl)amino)-5-(1-((R)-2-fluoro-3-hydroxy-3-methylbutyl)-1H-1,2,3-triazol-4-yl)pyridin-2-yl)pyrrolo[1,2-b]pyridazine-3-carbonitrile]
33	1	–	COC(=O)NC[C@H]1C[C@H](Nc2cc(-c3ccc4cc(C#N)cnn34)ncc2-c2cn(CC#N)nn2)C1 [Compound 16, methyl (((1r,3r)-3-((5-(1-(cyanomethyl)-1H-1,2,3-triazol-4-yl)-2-(3-cyanopyrrolo[1,2-b]pyridazin-7-yl)pyridin-4-yl)amino)cyclobutyl)methyl)carbamate]
49	2	–	CNc1cc(-c2ccc3cc(C#N)cnn23)ncc1-c1cn([C@H]2CC[C@H](NC(=O)N3CCOCC3)CC2)nn1 [Compound 18, N-((1r,4r)-4-(4-(6-(3-cyanopyrrolo[1,2-b]pyridazin-7-yl)-4-(methylamino)pyridin-3-yl)-1H-1,2,3-triazol-1-yl)cyclohexyl)morpholine-4-carboxamide]
9	< 1	–	COC(=O)NC[C@H]1C[C@H](Nc2cc(-c3ccc4cc(C#N)cnn34)ncc2-c2cn([C@H]3CC[C@H](NC(=O)C4CC4)CC3)nn2)C1 [Compound 19, methyl (((1R,3r)-3-((2-(3-cyanopyrrolo[1,2-b]pyridazin-7-yl)-5-(1-((1r,4R)-4-(cyclopropanecarboxamido)cyclohexyl)-1H-1,2,3-triazol-4-yl)pyridin-4-yl)amino)cyclobutyl)methyl)carbamate]
62	1	–	CNc1cc(-c2ccc3cc(C#N)cnn23)ncc1-c1cn([C@H]2CC[C@H](NC(=O)C3CC3)CC2)nn1 [Compound 20, N-((1r,4r)-4-(4-(6-(3-cyanopyrrolo[1,2-b]pyridazin-7-yl)-4-(methylamino)pyridin-3-yl)-1H-1,2,3-triazol-1-yl)cyclohexyl)cyclopropanecarboxamide]
–	< 1	9	Cn1cc(-c2cnc(-c3ccc4cc(C#N)cnn34)cc2NC23CCC(O)(CC2)CC3)nn1 [Compound 21, 7-(4-((4-hydroxybicyclo[2.2.2]octan-1-yl)amino)-5-(1-methyl-1H-1,2,3-triazol-4-yl)pyridin-2-yl)pyrrolo[1,2-b]pyridazine-3-carbonitrile]
–	11	302	CNc1cc(-c2ccc3cc(C#N)cnn23)ncc1-c1cn(CC(F)(F)F)nn1 [Compound 24, 7-(4-(methylamino)-5-(1-(2,2,2-trifluoroethyl)-1H-1,2,3-triazol-4-yl)pyridin-2-yl)pyrrolo[1,2-b]pyridazine-3-carbonitrile]
–	< 1	3	CC(C)(O)[C@H](F)Cn1cc(-c2cnc(-c3ccc4cc(C#N)cnn34)cc2NC23CCC(O)(CC2)CC3)nn1 [Compound 25, (R)-7-(5-(1-(2-fluoro-3-hydroxy-3-methylbutyl)-1H-1,2,3-triazol-4-yl)-4-((4-hydroxybicyclo[2.2.2]octan-1-yl)amino)pyridin-2-yl)pyrrolo[1,2-b]pyridazine-3-carbonitrile]
–	2	79	CNc1cc(-c2ccc3cc(C#N)cnn23)ncc1-c1cn(CCC(C)(C)O)nn1 [Compound 26, 7-(5-(1-(3-hydroxy-3-methylbutyl)-1H-1,2,3-triazol-4-yl)-4-(methylamino)pyridin-2-yl)pyrrolo[1,2-b]pyridazine-3-carbonitrile]
–	9	338	CNc1cc(-c2ccc3cc(C#N)cnn23)ncc1-c1cn(CC(F)F)nn1 [Compound 27, 7-(5-(1-(2,2-difluoroethyl)-1H-1,2,3-triazol-4-yl)-4-(methylamino)pyridin-2-yl)pyrrolo[1,2-b]pyridazine-3-carbonitrile]
–	3	94	CNc1cc(-c2ccc3cc(C#N)cnn23)ncc1-c1cn(CC(F)(F)C(C)(C)O)nn1 [Compound 28, 7-(5-(1-(2,2-difluoro-3-hydroxy-3-methylbutyl)-1H-1,2,3-triazol-4-yl)-4-(methylamino)pyridin-2-yl)pyrrolo[1,2-b]pyridazine-3-carbonitrile]
77	< 1	–	COC(=O)NC[C@H]1C[C@H](Nc2cc(-c3ccc4cc(C#N)cnn34)ncc2-c2cn(CC(F)(F)F)nn2)C1 [Compound 29, methyl (((1r,3r)-3-((2-(3-cyanopyrrolo[1,2-b]pyridazin-7-yl)-5-(1-(2,2,2-trifluoroethyl)-1H-1,2,3-triazol-4-yl)pyridin-4-yl)amino)cyclobutyl)methyl)carbamate]
4	< 1	–	COC(=O)NC[C@H]1C[C@H](Nc2cc(-c3ccc4cc(C#N)cnn34)ncc2-c2cn(CCC(C)(C)O)nn2)C1 [Compound 30, methyl (((1r,3r)-3-((2-(3-cyanopyrrolo[1,2-b]pyridazin-7-yl)-5-(1-(3-hydroxy-3-methylbutyl)-1H-1,2,3-triazol-4-yl)pyridin-4-yl)amino)cyclobutyl)methyl)carbamate]
–	< 1	23	CC(C)(O)[C@H](F)Cn1cc(-c2cnc(-c3ccc4cc(C#N)cnn34)cc2NC2COC2)nn1 [Compound 31, (R)-7-(5-(1-(2-fluoro-3-hydroxy-3-methylbutyl)-1H-1,2,3-triazol-4-yl)-4-(oxetan-3-ylamino)pyridin-2-yl)pyrrolo[1,2-b]pyridazine-3-carbonitrile]
38	< 1	–	COC(=O)NC[C@H]1C[C@H](Nc2cc(-c3ccc4cc(C#N)cnn34)ncc2-c2cn(CC(F)F)nn2)C1 [Compound 32, methyl (((1r,3r)-3-((2-(3-cyanopyrrolo[1,2-b]pyridazin-7-yl)-5-(1-(2,2-difluoroethyl)-1H-1,2,3-triazol-4-yl)pyridin-4-yl)amino)cyclobutyl)methyl)carbamate]
44	< 1	–	COC(=O)NC[C@H]1C[C@H](Nc2cc(-c3ccc4cc(C#N)cnn34)ncc2-c2cn(C)nn2)C1 [Compound 33, methyl (((1r,3r)-3-((2-(3-cyanopyrrolo[1,2-b]pyridazin-7-yl)-5-(1-methyl-1H-1,2,3-triazol-4-yl)pyridin-4-yl)amino)cyclobutyl)methyl)carbamate]

SMILES	EC50 (TNFα) [nM]	IC50 (IRAK4 enzyme) [nM]	EC50 (TNFα; Monocyte) [nM]
COC(=O)NCC1CC(Nc2cc(-c3ccc4cc(C#N)cnn34)ncc2-c2cn(C3CCC(NC(=O)OC(C)(C)C)CC3)nn2)C1 [Compound 22, methyl (((1R,3r)-3-((5-(1-((1r,4R)-4-((tert-butoxycarbonyl)amino)cyclohexyl)-1H-1,2,3-triazol-4-yl)-2-(3-cyanopyrrolo[1,2-b]pyridazin-7-yl)pyridin-4-yl)amino)cyclobutyl)methyl)carbamate]	187	1	–
